Data on one compound can be found in patent publication US20220184222A1, “BICYCLE TOXIN CONJUGATES AND USES THEREOF” (BicycleTx Limited, priority 2019, published 2022).

The data set has as its system PC-3 xenograft. In words: In vivo efficacy in PC-3 xenograft, male Balb/c nude mice (Example 3). Also on record: species or system Mus Musculus. As to the method:
The objective of the research is to evaluate the in vivo anti-tumor efficacy of test articles in treatment of PC-3 xenograft in Balb/c nude mice.
The tumor cells were maintained in F-12K medium supplemented with 10% heat inactivated fetal bovine serum at 37° C. in an atmosphere of 5% CO2 in air. The tumor cells were routinely subcultured twice weekly. The cells growing in an exponential growth phase were harvested and counted for tumor inoculation.
Each mouse was inoculated subcutaneously at the right flank with PC-3 tumor cells (10×10^6) in 0.2 ml of PBS for tumor development. 52 animals were randomized when the average tumor volume reached 454 mm^3. The test article administration and the animal numbers in each group were shown in the experimental design table.
The major endpoint was to see if the tumor growth could be delayed or mice could be cured. Tumor volume was measured three times weekly in two dimensions using a caliper, and the volume was expressed in mm3 using the formula: V=0.5 a×b^2 where a and b are the long and short diameters of the tumor, respectively. The tumor size was then used for calculations of T/C value. The T/C value (in percent) is an indication of antitumor effectiveness; T and C are the mean volumes of the treated and control groups, respectively, on a given day.
TGI was calculated for each group using the formula: TGI (%)=[1−(Ti−T0)/(Vi−V0)]×100; Ti is the average tumor volume of a treatment group on a given day, T0 is the average tumor volume of the treatment group on the day of treatment start, Vi is the average tumor volume of the vehicle control group on the same day with Ti, and V0 is the average tumor volume of the vehicle group on the day of treatment start.
Tumor growth inhibition rate for test articles in the PC-3 xenograft model was calculated based on tumor volume measurements at day 20 after the start of the treatment.

Where [1] appears, read: 15 mpk i.v. qw (treatment suspended after the first dosing), day 20.

“And” between values parts separate entries of the source, which are not always exact repeats. Equal entries are not always repeated.

Usually T/C stands for the ratio of treated to control. For `CC(=O)O[C@@]12CO[C@@H]1C[C@H](O)[C@@]1(C)C(=O)[C@H](O)C3=C(C)[C@@H](OC(=O)[C@H](O)[C@@H](NC(=O)OC(C)(C)C)c4ccccc4)C[C@@](O)([C@@H](OC(=O)c4ccccc4)[C@H]21)C3(C)C` [Docetaxel, reference compound], the “tumor relapse after ceasing the treatment” value (15 mg/kg qw) is recorded as “obvious tumor relapse”. For the same compound, the “animal body weight loss” value (15 mg/kg qw, after the first dosing) is given as “severe animal body weight loss”. Moreover, the Tumor volume is, setting by setting: (15 mpk i.v. qw (treatment suspended after the first dosing), day 0) 453 mm^3; (15 mpk i.v. qw (treatment suspended after the first dosing), day 2) 584 mm^3; (15 mpk i.v. qw (treatment suspended after the first dosing), day 4) 632 mm^3; (15 mpk i.v. qw (treatment suspended after the first dosing), day 6) 636 mm^3; (15 mpk i.v. qw (treatment suspended after the first dosing), day 8) 568 mm^3; (15 mpk i.v. qw (treatment suspended after the first dosing), day 10) 408 mm^3. Moreover, the Tumor volume is, setting by setting: (15 mpk i.v. qw (treatment suspended after the first dosing), day 13) 374 mm^3; (15 mpk i.v. qw (treatment suspended after the first dosing), day 15) 388 mm^3; (15 mpk i.v. qw (treatment suspended after the first dosing), day 17) 361 mm^3; under setting [1], 419 mm^3 and 419 ± 31 mm^3. Further, the T/C under setting [1] is on record as 17.7%. Moreover, under setting [1], the TGI was found to be 101.8%.
